“Also recorded” adds a separate entry of the source. Like-named read-outs stand apart in the source and are kept apart here.
Key:
[1] = tested on: myopia-induced juvenile mouse; assay: Lens-induced myopia (-30 D lens) in juvenile mouse: axial length (SD-OCT) and refraction; format: in vivo, mouse (C57BL6J); settings: for axial elongation of myopia-induced eye / myopic refraction of myopia-induced eye / axial elongation of control eye in which myopia had not been induced: eyedrop once a day for 10 days, 60 μM STF, 100 μM other inhibitors; for axial elongation of myopia-induced eye / myopic refraction of myopia-induced eye: -30 D lens eye; for axial elongation of control eye in which myopia had not been induced: compared with DMSO eyedrop
[2] = tested on: lens of myopia-induced juvenile mouse; settings: -30 D lens wearing group
Description: It was examined whether or not a difference in the dosage form of 4-PBA affects the change in the lens. In accordance with the description given above in “Experimental Method”, 4-PBA was eye-dropped or intraperitoneally administered to a myopia-induced juvenile mouse, and the thickness of the lens was measured with SD-OCT in the same manner as in the measurement of the axial length.

[3] = tested on: endoplasmic reticulum stress response genes (PERK pathway and ATF6 pathway) in the sclera; settings: FIG. 8
Description: A solution of sodium phenylbutyrate in PBS (4-PBA; 200 mg/kg) or tauroursodeoxycholic acid (TUDCA; 100 mg/kg) was intraperitoneally injected (i.p.) every day during the myopia induction period. Quantitative real-time PCR was performed using StepOnePlus Realtime PCR system with PowerUp SYBR Green Master Mix (Applied Biosystems, CA, USA). Expression level was standardized using β-actin. FIG. 8 illustrates change in gene expression obtained after intraperitoneal injection of 4-PBA every day through the myopia induction period. […] Besides, FIG. 10 illustrates axial elongation (a) and refraction change (b) obtained by eyedrop administration of 0.2% or 2% 4-PBA to a mouse during myopia induction. FIG. 11 illustrates axial elongation (b) and refraction change (a) obtained by intraperitoneal injection of TUDCA every day over the myopia induction period.

[4] = eyedrop administration of 2% 4-PBA as printed, 1st and 3rd weeks, FIG. 9

## Cc1cc(=O)oc2c(C=O)c(O)ccc12 [4μ8C]
[1]
  axial elongation of myopia-induced eye: neither axial elongation nor myopic refraction was inhibited
  myopic refraction of myopia-induced eye: neither axial elongation nor myopic refraction was inhibited

## C[C@H](CCC(=O)NCCS(=O)(=O)O)[C@H]1CC[C@H]2[C@@H]3[C@@H](O)C[C@@H]4C[C@H](O)CC[C@]4(C)[C@H]3CC[C@]12C [TUDCA, tauroursodeoxycholic acid]
[1]; intraperitoneal TUDCA 100 mg/kg every day during myopia induction, FIG. 11
  physiological axial elongation: did not inhibit physiological axial elongation
[1]; intraperitoneal TUDCA 100 mg/kg every day during myopia induction, FIG. 11(a)
  myopic refraction: myopic refraction is inhibited
[1]; intraperitoneal TUDCA 100 mg/kg every day during myopia induction, FIG. 11(b)
  axial elongation (pathologic axial elongation): inhibited pathologic axial elongation; also recorded: axial elongation is inhibited

## Cn1cc(-c2ccc3c(c2)CCN3C(=O)Cc2cccc(C(F)(F)F)c2)c2c(N)ncnc21 [GSK2606414]
[1]
  axial elongation of myopia-induced eye: neither axial elongation nor myopic refraction was inhibited
  myopic refraction of myopia-induced eye: neither axial elongation nor myopic refraction was inhibited
  axial elongation of control eye in which myopia had not been induced: the eye axis of the control eye also elongated

## Sodium phenylbutyrate [4-PBA]
[2]; eyedrop administration of 4-PBA, FIG. 14(B)
  lens thickening caused by myopia induction (LIM): lens thickening was not caused
[2]; intraperitoneal administration of 4-PBA, FIG. 14(A)
  lens thickening caused by myopia induction (LIM): did not affect lens thickening
[1]; eyedrop administration of 0.2% or 2% 4-PBA during myopia induction, FIG. 10(a)
  axial elongation, dose dependence: dose-dependent effectiveness was found; also recorded: inhibits axial elongation dose-dependently
[1]; eyedrop administration of 0.2% or 2% 4-PBA during myopia induction, FIG. 10(b)
  myopic refraction, dose dependence: dose-dependent effectiveness was found; also recorded: inhibits myopic refraction dose-dependently
[1]; [4]
  axial elongation: significantly inhibited to the same extent
  myopic refraction: significantly inhibited to the same extent
[1]; intraperitoneal 4-PBA 200 mg/kg/day, 1st week and 3rd week of myopia induction (LIM), FIG. 9(a)
  axial elongation: the axial elongation is inhibited
[1]; intraperitoneal 4-PBA 200 mg/kg/day, 1st week and 3rd week of myopia induction (LIM), FIG. 9(b)
  myopic refraction: the myopic refraction is inhibited
[3]; 4-PBA 200 mg/kg/day intraperitoneal vs PBS
  expression of endoplasmic reticulum stress response genes in sclera of myopia induced eyes: the increase is inhibited
[3]; eyedrop administration of 2% 4-PBA as printed
  expression of genes disposed downstream of the PERK pathway and the ATF6 pathway: significantly inhibited

## O=C(Nc1cnn(Cc2ccc(C(F)(F)F)cc2C(F)(F)F)c1)c1cc(-c2ccco2)on1 [Ceapin-A7]
[1]
  axial elongation of myopia-induced eye: neither axial elongation nor myopic refraction was inhibited
  myopic refraction of myopia-induced eye: neither axial elongation nor myopic refraction was inhibited
  axial elongation of control eye in which myopia had not been induced: the eye axis of the control eye also elongated
